Laboratory results as given in paper PMC11995724, “Antibiotic target discovery by integrated phenotypic and activity-based profiling of electrophilic fragments” (Cell chemical biology, 2025).

Test: in vitro
Settings: human, hek293t cells

Row | SMILES | viability at 48 h, 25 µM
1 | COc1cccc(NC(=O)C(C#N)=Cc2c[nH]c(-c3ccccc3)n2)c1 [9-C20, 2-cyano-N-(3-methoxyphenyl)-3-(2-phenyl-1H-imidazol-4-yl)prop-2-enamide] | 108%
2 | N#CC(=Cc1ccc(F)cc1)C(=O)Nc1cccc2ncccc12 [9-C21, 2-cyano-3-(4-fluorophenyl)-N-(quinolin-5-yl)prop-2-enamide] | 118%
3 | Cc1ccc(C=C(C#N)C(=O)Nc2ccccc2Cl)s1 [9-C22, N-(2-chlorophenyl)-2-cyano-3-(5-methylthiophen-2-yl)prop-2-enamide] | 107%
4 | Cc1nn(C)c(C)c1C=C(C#N)C(=O)Nc1ccc2c(c1)OCCO2 [9-D03, 2-cyano-N-(2,3-dihydro-1,4-benzodioxin-6-yl)-3-(1,3,5-trimethyl-1H-pyrazol-4-yl)prop-2-enamide] | 112%
5 | CCOc1cc2c(cc1C=C(C#N)C(N)=O)OC(C)C2 (stereo not drawn) [9-D04, 2-cyano-3-(5-ethoxy-2-methyl-2,3-dihydro-1-benzofuran-6-yl)prop-2-enamide] | 128%
6 | Cc1ccc(NC(=O)C(C#N)=Cc2ccccc2OC(F)F)cc1 [9-D05, 2-cyano-3-[2-(difluoromethoxy)phenyl]-N-(4-methylphenyl)prop-2-enamide] | 96.9%
7 | CCOC=C(C#N)C(=O)N1CCN(S(=O)(=O)c2cc[nH]n2)CC1 [9-D06, 3-ethoxy-2-[4-(1H-pyrazole-3-sulfonyl)piperazine-1-carbonyl]prop-2-enenitrile] | 110%
8 | COc1ccc2cc(C=C(C#N)C(=O)NCc3ccccc3)ccc2c1 [9-D07, N-benzyl-2-cyano-3-(6-methoxynaphthalen-2-yl)prop-2-enamide] | 108%
9 | N#CC1=C(N2CCOCC2)SC(c2ccc([N+](=O)[O-])cc2)NC1=O (stereo not drawn) [9-D08, 6-(morpholin-4-yl)-2-(4-nitrophenyl)-4-oxo-3,4-dihydro-2H-1,3-thiazine-5-carbonitrile] | 112%
10 | N#CC(=Cc1ccc(Cl)cc1)C(=O)Nc1cccc2c1C(=O)NC2=O [9-D09, 3-(4-chlorophenyl)-2-cyano-N-(1,3-dioxo-2,3-dihydro-1H-isoindol-4-yl)prop-2-enamide] | 105%
11 | CN(C)c1ccc(C=C(C#N)C(=O)NCc2ccco2)cc1 [9-D10, 2-cyano-3-[4-(dimethylamino)phenyl]-N-[(furan-2-yl)methyl]prop-2-enamide] | 101%
12 | CCCn1c(C)cc(C=C(C#N)C(=O)N2CCCCC2)c1C [9-D11, 3-(2,5-dimethyl-1-propyl-1H-pyrrol-3-yl)-2-(piperidine-1-carbonyl)prop-2-enenitrile] | 106%
13 | Cc1ccc(C)c(NC(=O)C(C#N)=Cc2ccc(N3CCCCC3)o2)c1 [9-D12, 2-cyano-N-(2,5-dimethylphenyl)-3-[5-(piperidin-1-yl)furan-2-yl]prop-2-enamide] | 69.5%
14 | Cc1cc(C=C(C#N)C(=O)Nc2nccs2)cc(C)c1O [9-D13, 2-cyano-3-(4-hydroxy-3,5-dimethylphenyl)-N-(1,3-thiazol-2-yl)prop-2-enamide] | 106%
15 | CNC(=O)C(C#N)=Cc1cccc(C)c1C [9-D14, 2-cyano-3-(2,3-dimethylphenyl)-N-methylprop-2-enamide] | 112%
16 | CC(NC(=O)C(C#N)=Cc1cc(O)ccc1[N+](=O)[O-])c1ccccc1 (stereo not drawn) [9-D15, 2-cyano-3-(5-hydroxy-2-nitrophenyl)-N-(1-phenylethyl)prop-2-enamide] | 101%
17 | N#CC(=Cc1csc2ccccc12)C(=O)NCc1ccco1 [9-D16, 3-(1-benzothiophen-3-yl)-2-cyano-N-[(furan-2-yl)methyl]prop-2-enamide] | 108%
18 | Cc1cccc(NC(=O)C(C#N)=Cc2cc(C)n(C3CC3)c2C)c1 [9-D17, 2-cyano-3-(1-cyclopropyl-2,5-dimethyl-1H-pyrrol-3-yl)-N-(3-methylphenyl)prop-2-enamide] | 94.3%
19 | Cn1cc(C=C(C#N)C(=O)N2CCCC2)c(-c2cc3ccccc3o2)n1 [9-D18, 3-[3-(1-benzofuran-2-yl)-1-methyl-1H-pyrazol-4-yl]-2-(pyrrolidine-1-carbonyl)prop-2-enenitrile] | 106%
20 | CC(=O)Nc1ccc(C=C(C#N)C(=O)Nc2cccc(C)c2C)cc1 [9-D19, 2-cyano-N-(2,3-dimethylphenyl)-3-(4-acetamidophenyl)prop-2-enamide] | 107%
21 | N#CC(=Cc1ccco1)C(=O)Nc1cc2c(cc1Cl)NC(=O)CO2 [9-D20, N-(6-chloro-3-oxo-3,4-dihydro-2H-1,4-benzoxazin-7-yl)-2-cyano-3-(furan-2-yl)prop-2-enamide] | 87%
22 | C=CCNC(=O)C(C#N)=Cc1ccc(C)c(C)c1 [9-D21, 2-cyano-3-(3,4-dimethylphenyl)-N-(prop-2-en-1-yl)prop-2-enamide] | 110%
23 | COCCNC(=O)C(C#N)=Cc1ccc(O)cc1 [9-D22, 2-cyano-3-(4-hydroxyphenyl)-N-(2-methoxyethyl)prop-2-enamide] | 110%
24 | N#CC(=Cc1ccc2[nH]c(=O)[nH]c2c1)C(=O)NC1CCCC1 [9-E03, 2-cyano-N-cyclopentyl-3-(2-oxo-2,3-dihydro-1H-1,3-benzodiazol-5-yl)prop-2-enamide] | 121%

Row | SMILES | viability at 48 h, 25 µM
25 | Cc1ccc(NC(=O)C(C#N)=Cc2ccc(C(C)(C)C)cc2)cc1C [9-E04, 3-(4-tert-butylphenyl)-2-cyano-N-(3,4-dimethylphenyl)prop-2-enamide] | 104%
26 | CC(C#N)Oc1ccc(C=C(C#N)C(=O)Nc2ccccc2Cl)cc1 (stereo not drawn) [9-E05, N-(2-chlorophenyl)-2-cyano-3-[4-(1-cyanoethoxy)phenyl]prop-2-enamide] | 111%
27 | Cc1ccccc1C(C)NC(=O)C(C#N)=Cc1ccco1 (stereo not drawn) [9-E06, 2-cyano-3-(furan-2-yl)-N-[1-(2-methylphenyl)ethyl]prop-2-enamide] | 107%
28 | Cc1nn(-c2ccccc2)c(C)c1C=C(C#N)C(=O)Nc1nccs1 [9-E07, 2-cyano-3-(3,5-dimethyl-1-phenyl-1H-pyrazol-4-yl)-N-(1,3-thiazol-2-yl)prop-2-enamide] | 119%
29 | COc1ccc2cc(C=C(C#N)C(=O)Nc3nccs3)ccc2c1 [9-E08, 2-cyano-3-(6-methoxynaphthalen-2-yl)-N-(1,3-thiazol-2-yl)prop-2-enamide] | 63.3%
30 | CCCCNC(=O)C(C#N)=Cc1cc(C)c(O)c(C)c1 [9-E09, N-butyl-2-cyano-3-(4-hydroxy-3,5-dimethylphenyl)prop-2-enamide] | 111%
31 | COc1ccc(C=C(C#N)C(=O)Nc2cccc3ccccc23)cc1 [9-E10, 2-cyano-3-(4-methoxyphenyl)-N-(naphthalen-1-yl)prop-2-enamide] | 105%
32 | CC(C)NC(=O)C(C#N)=Cc1ccc2c(c1)OCCO2 [9-E11, 2-cyano-3-(2,3-dihydro-1,4-benzodioxin-6-yl)-N-(propan-2-yl)prop-2-enamide] | 118%
33 | Cc1cccc(NC(=O)C(C#N)=Cc2ccc(F)cc2)c1 [9-E12, 2-cyano-3-(4-fluorophenyl)-N-(3-methylphenyl)prop-2-enamide] | 90.9%
34 | CC(C)NC(=O)C(C#N)=Cc1c(Cl)cccc1Cl [9-E13, 2-cyano-3-(2,6-dichlorophenyl)-N-(propan-2-yl)prop-2-enamide] | 87%
35 | N#CC(=Cc1ccc(N)cc1)C(=O)N1CCCC1 [9-E14, 3-(4-aminophenyl)-2-(pyrrolidine-1-carbonyl)prop-2-enenitrile] | 101%
36 | N#CC(=Cc1ccc(Cl)c([N+](=O)[O-])c1)C(=O)NCc1ccco1 [9-E15, 3-(4-chloro-3-nitrophenyl)-2-cyano-N-[(furan-2-yl)methyl]prop-2-enamide] | 6.64%
37 | N#CC(=Cc1ccco1)C(=O)Nc1ccc2nc(S)oc2c1 [9-E16, 2-cyano-3-(furan-2-yl)-N-(2-sulfanyl-1,3-benzoxazol-6-yl)prop-2-enamide] | 110%
38 | CCCCNC(=O)C(C#N)=Cc1cccs1 [9-E17, N-butyl-2-cyano-3-(thiophen-2-yl)prop-2-enamide] | 117%
39 | COc1cc(Cl)ccc1CNC(=O)C(C#N)=Cc1ccco1 [9-E18, N-[(4-chloro-2-methoxyphenyl)methyl]-2-cyano-3-(furan-2-yl)prop-2-enamide] | 109%
40 | Cc1ccc(C=C(C#N)C(=O)Nc2cc(Cl)ccc2Cl)s1 [9-E19, 2-cyano-N-(2,5-dichlorophenyl)-3-(5-methylthiophen-2-yl)prop-2-enamide] | 107%
41 | N#CC(=Cc1cnc2ccc(C#N)cn12)C(=O)Nc1ccc(F)cc1 [9-E20, 2-cyano-3-{6-cyanoimidazo[1,2-a]pyridin-3-yl}-N-(4-fluorophenyl)prop-2-enamide] | 99.4%
42 | Cc1ccccc1NC(=O)C(C#N)=Cc1ccc(N2CCCCC2)cc1 [9-E21, 2-cyano-N-(2-methylphenyl)-3-[4-(piperidin-1-yl)phenyl]prop-2-enamide] | 91.8%
43 | N#CC(=Cc1ccc(Cl)cc1)C(=O)Nc1ccc2c(c1)OCCO2 [9-E22, 3-(4-chlorophenyl)-2-cyano-N-(2,3-dihydro-1,4-benzodioxin-6-yl)prop-2-enamide] | 106%
44 | N#CC(=Cc1ccc(O)cc1)C(=O)Nc1cc(Cl)ccc1Cl [9-F03, 2-cyano-N-(2,5-dichlorophenyl)-3-(4-hydroxyphenyl)prop-2-enamide] | 87%
45 | COCC(C)NC(=O)C(C#N)=Cc1cc2cc(F)ccc2o1 (stereo not drawn) [9-F04, 2-cyano-3-(5-fluoro-1-benzofuran-2-yl)-N-(1-methoxypropan-2-yl)prop-2-enamide] | 99.8%
46 | C=CCNC(=O)C(C#N)=Cc1ccc(C)s1 [9-F05, 2-cyano-3-(5-methylthiophen-2-yl)-N-(prop-2-en-1-yl)prop-2-enamide] | 108%
47 | N#CC(=Cc1cccc(Oc2ccccc2)c1)C(=O)N1CCCC1 [9-F06, 3-(3-phenoxyphenyl)-2-(pyrrolidine-1-carbonyl)prop-2-enenitrile] | 46.3%
48 | CCn1nc(C)c(C=C(C#N)C(=O)Nc2ccccc2Cl)c1C [9-F07, N-(2-chlorophenyl)-2-cyano-3-(1-ethyl-3,5-dimethyl-1H-pyrazol-4-yl)prop-2-enamide] | 110%
